Read-outs that look alike come from different tables or passages of the source.
Legend:
[1] = molecular target: T1, MMP-13CD (catalytic domain of collagenase 3) (Homo sapiens, UniProt P45452); test: biochemical;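 note: inhibition of enzymatic thiopeptolide substrate cleavage (100 µM) in pH 6.0 MES buffer with CaCl2 and DTNB, comparing hydrolysis with versus without inhibitor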
Procedure: (§1) They measure the amount by which a test compound reduces the hydrolysis of a thiopeptolide substrate caused by a matrix metalloproteinase enzyme.
(§2) Thiopeptolide substrates show virtually no decomposition or hydrolysis in the absence of a matrix metalloproteinase enzyme. A typical thiopeptolide substrate commonly utilized for assays is Ac-Pro-Leu-Gly-thioester-Leu-Leu-Gly-OEt. A 100 μL assay mixture will contain 50 mM of 2-morpholinoethane sulfonic acid monohydrate (MES, pH 6.0) 10 mM CaCl2, 100 μM thiopeptolide substrate, and 1 mM 5,5′-dithio-bis-(2-nitro-benzoic acid) (DTNB). […] Assays are carried out with and without matrix metalloproteinase inhibitor compounds, and the amount of hydrolysis is compared for a determination of inhibitory activity of the test compounds.

[2] = molecular target: T1, MMP-13CD (catalytic domain of collagenase 3); test: Thiopeptolide hydrolysis assay, MMP-13;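 note: inhibition of enzymatic thiopeptolide substrate cleavage (100 µM) in pH 6.0 MES buffer with CaCl2 and DTNB, comparing hydrolysis with versus without inhibitor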
Procedure: as §1, §2

[3] = molecular target: MMP-3CD (catalytic domain of stromelysin) (Homo sapiens, UniProt P08254); test: Thiopeptolide hydrolysis assay, MMP-3; format: biochemical; conditions: Table 1a; catalytic domain; read-out: MMP03 (CD) IC50;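 note: inhibition of thiopeptolide substrate (100 µM) cleavage by the MMP-3 catalytic domain, detected with DTNB at pH 6.0 with CaCl2, hydrolysis compared against runs lacking inhibitor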
[4] = molecular target: T2, MMP-7FL (full-length matrilysin) (Homo sapiens, UniProt P09237); test: Thiopeptolide hydrolysis assay, MMP-7; format: biochemical
T2 sequence (P09237 95-267): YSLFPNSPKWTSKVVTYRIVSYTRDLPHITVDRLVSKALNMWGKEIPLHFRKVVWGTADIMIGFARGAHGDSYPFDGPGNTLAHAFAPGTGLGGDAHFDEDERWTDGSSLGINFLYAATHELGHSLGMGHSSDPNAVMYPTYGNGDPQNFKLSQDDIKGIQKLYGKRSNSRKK

[5] = molecular target: MMP-9FL (full length Gelatinase B) (Homo sapiens, UniProt P14780); test: Thiopeptolide hydrolysis assay, MMP-9; format: biochemical
[6] = molecular target: MMP-14CD (catalytic domain of membrane type 1 MMP) (Homo sapiens, UniProt P50281); test: Thiopeptolide hydrolysis assay, MMP-14; format: biochemical
[7] = molecular target: T3, MMP-1FL (full-length interstitial collagenase) (Homo sapiens, UniProt P03956); test: Thiopeptolide hydrolysis assay, MMP-1; format: biochemical; conditions: Table VI, synthesis examples; read-out: MMP01
T3 sequence (P03956 100-469): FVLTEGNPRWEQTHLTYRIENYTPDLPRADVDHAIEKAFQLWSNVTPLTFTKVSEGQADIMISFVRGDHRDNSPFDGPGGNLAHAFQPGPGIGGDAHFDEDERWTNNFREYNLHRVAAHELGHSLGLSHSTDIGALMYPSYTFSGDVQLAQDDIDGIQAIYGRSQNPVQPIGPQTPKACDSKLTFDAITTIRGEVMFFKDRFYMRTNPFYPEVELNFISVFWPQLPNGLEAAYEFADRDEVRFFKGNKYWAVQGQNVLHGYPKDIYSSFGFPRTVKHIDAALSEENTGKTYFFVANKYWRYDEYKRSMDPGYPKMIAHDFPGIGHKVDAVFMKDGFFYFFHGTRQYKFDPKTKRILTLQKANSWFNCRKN
Procedure: as §1
Thiopeptolide substrates show virtually no decomposition or hydrolysis in the absence of a matrix metalloproteinase enzyme. A typical thiopeptolide substrate commonly utilized for assays is Ac-Pro-Leu-Gly-thioester-Leu-Leu-Gly-OEt. A 100 μL assay mixture will contain 50 mM of 2-morpholinoethane sulfonic acid monohydrate (MES, pH 6.0) 10 mM CaCl2, 100 μM thiopeptolide substrate, and 1 mM 5,5′-dithio-bis-(2-nitro-benzoic acid) (DTNB). […] The change in absorbance at 405 nm is monitored on a Thermo Max microplate reader (moleucular Devices, Menlo Park, Calif.) at room temperature (22° C.). […] Assays are carried out with and without matrix metalloproteinase inhibitor compounds, and the amount of hydrolysis is compared for a determination of inhibitory activity of the test compounds.

[8] = molecular target: T4, MMP-2FL (full length Gelatinase A) (Homo sapiens, UniProt P08253); test: Thiopeptolide hydrolysis assay, MMP-2; format: biochemical; conditions: Table VI, synthesis examples; read-out: MMP02
T4 sequence (P08253 110-660): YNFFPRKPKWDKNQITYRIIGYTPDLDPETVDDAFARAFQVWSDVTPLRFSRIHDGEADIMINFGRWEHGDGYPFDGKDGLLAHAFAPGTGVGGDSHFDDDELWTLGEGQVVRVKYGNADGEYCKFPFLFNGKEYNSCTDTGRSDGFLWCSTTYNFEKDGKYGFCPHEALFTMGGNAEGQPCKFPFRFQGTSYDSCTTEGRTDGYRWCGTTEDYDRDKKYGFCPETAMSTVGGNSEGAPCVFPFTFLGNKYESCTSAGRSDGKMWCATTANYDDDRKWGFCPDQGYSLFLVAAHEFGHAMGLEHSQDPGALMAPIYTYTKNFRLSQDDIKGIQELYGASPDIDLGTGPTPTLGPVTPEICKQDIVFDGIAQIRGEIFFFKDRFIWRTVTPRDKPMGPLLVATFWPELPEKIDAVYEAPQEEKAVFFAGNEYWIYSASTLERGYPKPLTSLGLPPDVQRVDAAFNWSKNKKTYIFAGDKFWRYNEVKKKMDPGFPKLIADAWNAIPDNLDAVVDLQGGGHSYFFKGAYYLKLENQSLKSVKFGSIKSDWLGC

[9] = Table VI, synthesis examples, read-out: MMP09
[10] = Table VI, synthesis examples, read-out: MMP014

Sequence of MMP-9FL (full length Gelatinase B) (P14780 94-707): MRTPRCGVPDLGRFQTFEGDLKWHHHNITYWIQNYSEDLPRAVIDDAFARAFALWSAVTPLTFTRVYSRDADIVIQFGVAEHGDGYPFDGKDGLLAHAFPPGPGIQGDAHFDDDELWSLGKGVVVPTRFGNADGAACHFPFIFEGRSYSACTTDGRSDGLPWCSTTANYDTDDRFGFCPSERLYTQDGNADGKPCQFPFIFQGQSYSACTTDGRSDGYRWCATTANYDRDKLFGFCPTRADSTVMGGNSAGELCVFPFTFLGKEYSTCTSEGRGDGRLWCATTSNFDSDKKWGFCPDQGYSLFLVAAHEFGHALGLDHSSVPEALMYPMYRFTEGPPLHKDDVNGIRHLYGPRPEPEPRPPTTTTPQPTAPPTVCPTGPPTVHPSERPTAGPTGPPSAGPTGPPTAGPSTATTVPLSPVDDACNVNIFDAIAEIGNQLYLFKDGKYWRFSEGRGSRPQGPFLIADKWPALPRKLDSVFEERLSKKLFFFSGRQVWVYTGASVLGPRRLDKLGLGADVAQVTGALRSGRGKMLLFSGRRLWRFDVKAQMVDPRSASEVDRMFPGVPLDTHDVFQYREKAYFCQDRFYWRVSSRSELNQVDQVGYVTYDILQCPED
Sequence of MMP-3CD (catalytic domain of stromelysin) (P08254 100-272 limits assumed): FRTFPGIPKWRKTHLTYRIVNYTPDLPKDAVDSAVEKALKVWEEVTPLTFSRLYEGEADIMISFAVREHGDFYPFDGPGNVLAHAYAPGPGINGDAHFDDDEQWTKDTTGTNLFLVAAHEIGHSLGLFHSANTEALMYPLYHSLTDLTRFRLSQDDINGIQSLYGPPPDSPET

Row | IC50 [1] [nM] | Compound | also measured
1 | 14 | O=C(NCc1ccc2c(c1)OCO2)c1ccc2[nH]c(=S)n(Cc3ccccc3)c(=O)c2c1 [3-Benzyl-4-oxo-2-thioxo-1,2,3,4-tetrahydroquinazoline-6-carboxylic acid (benzo[1,3]dioxol-5-ylmethyl)amide] | IC50 ([2]; MMP13 IC50 μM, Table IVb): 0.014 µM
2 |  | O=C(OCc1ccncc1)c1cn2c(=O)n(Cc3ccccc3)c(=O)cc2s1 [Example 4] | IC50 [3]: ≥ 30000 nM; IC50 ([4]; Table 1a, full-length enzyme, read-out: MMP07 (FL) IC50): ≥ 100000 nM; IC50 ([5]; Table 1a, full-length enzyme, read-out: MMP09 (FL) IC50): ≥ 100000 nM; IC50 ([6]; Table 1a, catalytic domain, read-out: MMP14 (CD) IC50): ≥ 100000 nM; IC50 ([2]; MMP13 (CD) IC50 μM, Table 1a, catalytic domain): 0.0054 µM
3 | 9 | Cn1c(=O)n(Cc2ccc(Cl)cc2)c(=O)c2cc(C(=O)NCc3ccc4c(c3)OCO4)ccc21 [Synthesis Example 33, 3-(4-Chlorobenzyl)-1-methyl-2,4-dioxo-1,2,3,4-tetrahydroquinazoline-6-carboxylic acid (benzo[1,3]dioxol-5-ylmethyl)amide] | 
4 | 17 | O=C(NCc1ccc2c(c1)OCO2)c1ccc2[nH]c(=O)n(Cc3ccc4c(c3)OCO4)c(=O)c2c1 [Synthesis Example 34, 3-(Benzo[1,3]dioxol-5-ylmethyl)-2,4-dioxo-1,2,3,4-tetrahydroquinazoline-6-carboxylic acid (benzo[1,3]dioxol-5-ylmethyl)amide] | 
5 | 3 | Cn1c(=O)n(Cc2ccc3c(c2)OCO3)c(=O)c2cc(C(=O)NCc3ccc4c(c3)OCO4)ccc21 [Synthesis Example 35, 3-(Benzo[1,3]dioxol-5-ylmethyl)-1-methyl-2,4-dioxo-1,2,3,4-tetrahydroquinazoline-6-carboxylic acid (benzo[1,3]dioxol-5-ylmethyl)amide] | 
6 | 26 | CCn1c(=O)n(Cc2ccccc2)c(=O)c2cc(C(=O)NCc3ccc4c(c3)OCO4)ccc21 [Synthesis Example 36, 3-Benzyl-1-ethyl-2,4-dioxo-1,2,3,4-tetrahydroquinazoline-6-carboxylic acid (benzo[1,3]dioxol-5-ylmethyl)amide] | 
7 | 920 | Cn1c(=O)[nH]c(=O)c2cc(C(=O)NCc3ccc4c(c3)OCO4)ccc21 [Synthesis Example 37, 1-Methyl-2,4-dioxo-1,2,3,4-tetrahydroquinazoline-6-carboxylic acid (benzo[1,3]dioxol-5-ylmethyl)amide] | 
8 | 4 | COC(=O)c1ccc(Cn2c(=O)c3cc(C(=O)NCc4ccc(OC)cc4)ccc3n(C)c2=O)cc1 [Synthesis Example 38, 4-[6-(4-Methoxy-benzylcarbamoyl)-1-methyl-2,4-dioxo-1,4-dihydro-2H-quinazolin-3-ylmethyl]-benzoic acid methyl ester] | 
9 | 22 | Cn1c(=O)n(C/C=C/c2ccccc2)c(=O)c2cc(C(=O)NCc3ccc4c(c3)OCO4)ccc21 [Synthesis Example 40, 1-Methyl-2,4-dioxo-3-((E)-3-phenylallyl)-1,2,3,4-tetrahydroquinazoline-6-carboxylic acid (benzo[1,3]dioxol-5-ylmethyl)amide] | 
10 | 29 | O=C(OCc1ccccc1)c1ccc2[nH]c(=O)n(Cc3ccccc3)c(=O)c2c1 [Synthesis Example 41, Benzyl 3-benzyl-2,4-dioxo-1,2,3,4-tetrahydroquinazoline-6-carboxylate] | 
11 | 31 | Cn1c(=O)n(Cc2ccccc2)c(=O)c2cc(C(=O)OCc3ccccc3)ccc21 [Synthesis Example 42, Benzyl 3-benzyl-1-methyl-2,4-dioxo-1,2,3,4-tetrahydroquinazoline-6-carboxylate] | 
12 | 11 | O=C(OCc1ccncc1)c1ccc2[nH]c(=O)n(Cc3ccccc3)c(=O)c2c1 [Synthesis Example 43, 4-Pyridylmethyl 3-benzyl-2,4-dioxo-1,2,3,4-tetrahydroquinazoline-6-carboxylate] | 
13 | 4 | Cn1c(=O)n(Cc2ccccc2)c(=O)c2cc(C(=O)OCc3ccncc3)ccc21 [Synthesis Example 44, 4-Pyridylmethyl 3-benzyl-1-methyl-2,4-dioxo-1,2,3,4-tetrahydroquinazoline-6-carboxylate] | 
14 | 7 | O=C(OCc1ccc2c(c1)OCO2)c1ccc2[nH]c(=O)n(Cc3ccccc3)c(=O)c2c1 [Synthesis Example 45, Benzo[1,3]dioxol-5-ylmethyl 3-benzyl-2,4-dioxo-1,2,3,4-tetrahydroquinazoline-6-carboxylate] | 
15 | 2.5 | Cn1c(=O)n(Cc2ccccc2)c(=O)c2cc(C(=O)OCc3ccc4c(c3)OCO4)ccc21 [Synthesis Example 46, Benzo[1,3]dioxol-5-ylmethyl 3-benzyl-1-methyl-2,4-dioxo-1,2,3,4-tetrahydroquinazoline-6-carboxylate] | 
16 | 16 | O=C(OCc1ccncc1)c1ccc2[nH]c(=O)n(Cc3cccs3)c(=O)c2c1 [Synthesis Example 47, 4-Pyridylmethyl 2,4-dioxo-3-thien-2-ylmethyl-1,2,3,4-tetrahydroquinazoline-6-carboxylate] | 
17 | 7 | Cn1c(=O)n(Cc2ccccc2)c(=O)c2cc(C(=O)NCc3ccc4c(c3)OCO4)cnc21 [Synthesis Example 49, 3-Benzyl-1-methyl-2,4-dioxo-1,2,3,4-tetrahydro-pyrido[2,3-d]pyrimidine-6-carboxylic acid (1,3-benzodioxol-5-ylmethyl)-amide] | 
18 | 1.6 | COc1ccc(CNC(=O)c2cnc3c(c2)c(=O)n(Cc2ccc(C(=O)O)cc2)c(=O)n3C)cc1 [Synthesis Example 50, 4-[6-(4-Methoxy-benzylcarbamoyl)-1-methyl-2,4-dioxo-1,4-dihydro-2H-pyrido[2,3-d]pyrimidin-3-ylmethyl]-benzoic acid] | 
19 | 16 | COc1ccc(CNC(=O)c2cnc3c(c2)c(=O)n(Cc2ccc(C#N)cc2)c(=O)n3C)cc1 [Synthesis Example 51, 3-(4-Cyano-benzyl)-1-methyl-2,4-dioxo-1,2,3,4-tetrahydro-pyrido[2,3-d]pyrimidine-6-carboxylic acid 4-methoxy-benzylamide] | 
20 | 32 | COc1ccc(CNC(=O)c2cnc3c(c2)c(=O)n(Cc2ccc(F)cc2)c(=O)n3C)cc1 [Synthesis Example 52, 3-(4-Fluoro-benzyl)-1-methyl-2,4-dioxo-1,2,3,4-tetrahydro-pyrido[2,3-d]pyrimidine-6-carboxylic acid 4-methoxy-benzylamide] | 
21 | 1 | Cn1c(=O)n(Cc2ccccc2)c(=O)c2cc(C(=O)NCc3ccc4c(c3)OCO4)ncc21 [Synthesis Example 53, 3-Benzyl-1-methyl-2,4-dioxo-1,2,3,4-tetrahydro-pyrido[3,4-d]pyrimidine-6-carboxylic acid (1,3-benzodioxol-5-ylmethyl)-amide] | 
22 | 1.7 | COC(=O)c1ccc(Cn2c(=O)c3cc(C(=O)NCc4ccc(OC)cc4)ncc3n(C)c2=O)cc1 [Synthesis Example 54, Methyl 4-[6-(4-Methoxy-benzylcarbamoyl)-1-methyl-2,4-dioxo-1,4-dihydro-2H-pyrido[3,4-d]pyrimidin-3-ylmethyl]-benzoate] | 
23 |  | CN1C(=O)N(Cc2ccccc2)S(=O)(=O)c2cc(C(=O)OCc3ccccc3)ccc21 [compound 62] | IC50 [7]: > 100000 nM; IC50 [8]: > 100000 nM; IC50 [5, 9]: > 100000 nM; IC50 [6, 10]: > 100000 nM
24 |  | COc1ccc(CNC(=O)c2ccc3c(c2)S(=O)(=O)N(Cc2ccc([N+](=O)[O-])cc2)C(=O)N3C)cc1 [compound 65] | IC50 [7]: > 30000 nM; IC50 ([4]; Table VI, synthesis examples, read-out: MMP07): > 30000 nM; IC50 [5, 9]: > 30000 nM; IC50 [6, 10]: > 30000 nM

Source: patent publication US20050004126A1 (priority 2001, published 2005)
